Source: patent US8268849B2, “Multifunctional Antioxidants and methods of use thereof” (priority 2007, dated 2012)

Key:
[1] = Chelation study by ESI-MS, Fe^2+ solution; format: binding; settings: 10:1 metal:compound, 45 minutes of mixing
Method: The relative amount of ions bound by JHX-1-JHX-8 was determined by electrospray ionization mass spectrometry (ESI-MS) according to the method of Baron and Hering (Baron and Hering (1998) Spectrometry J. Environ. Qual., 27:844-850). In this method solutions containing Fe^2+, Fe^3+, Cu^1+, Cu^2+, Zn^2+, Ca^2+, Mg^2+ were mixed with compound in ratios of 10:1, 1:1, and 1:10. After 45 minutes of mixing, each solution was directly infused into the MS with constant ionization energy and the relative decreases of the parent peaks in these solutions were determined. […] FIG. 3 illustrates ion binding with increased Fe^+2 concentrations results in decreased compound parent peak heights by ESI-MS when compounds contain appropriate functional groups for metal ion chelation.

[2] = tested on: SRA-1 human lens epithelial cells; experiment: ROS staining (H2DCF-DA) in lens epithelial cells; format: cell-based; settings: 24 hour incubation, H2DCF-DA stain; for ROS staining, ROS generated by Fenton reaction: 0.1 mM Fe^2+ and 0.1 mM hydrogen peroxide; for ROS staining, ROS initiated by homocysteine: 10 mM homocysteine (ER stress)
Method: The SRA-1 human lens epithelium cell line (Ibaraki et al. (1998) Exp. Eye Res., 67:577-85) was used to evaluate the antioxidant activity of JHX-1-8. These cells were cultured in DMEM media containing 10% fetal bovine serum (FBS), glutamine, NaHCO3, penicillin, and streptomycin at 37° C. in humidified atmosphere of 5% CO2 and 95% air until subconfluent (2-4 days). The cells were passaged when 80-90% confluent by treatment with trypsin-EDTA. The cells were plated at a density of 1×10^4 cells onto 96-well plates or 1×10^6 cells onto 100-mm dishes. ROS levels/effects in cells treated with JHX-1-8 were compared to similar cells treated with the water soluble Vitamin E derivative, Trolox (antioxidant control) or no drug (control).
The compounds were initially screened for antioxidant activity in 24 hour cultured SRA-1 human lens epithelial cells. Reactive oxygen species (ROS) in these cells were generated through both the Fenton reaction in which 0.1 mM Fe^2+ and 0.1 mM hydrogen peroxide were added to the culture media, or by culturing the lens with 10 mM homocysteine which induces endoplasmic reticular (ER) stress that results in the unfolded protein response (UPR) that subsequently generates the ROS. ROS were visualized with 2′,7′-dichlorodihydrofluorescein diacetate (DCF) staining. More specifically, after 24 hours of incubation, all cells were washed 2× with PBS and then incubated at room temperature for 1 hour with 10 μM H2DCF-DA (Invitrogen) stain. Fluorescent ROS staining was analyzed by quantifying pixel intensities of images obtained by fluorescent microscopy. As illustrated below in FIGS. 4A and 4B, compounds with chelating groups only produced a dose-dependent reduction in Fenton Reaction generated ROS. […] Indeed, homocysteine activates ER stress which subsequently initiates ROS through an Unfolded Protein Response (UPR).

[3] = tested on: SRA-1 human lens epithelium cell line; experiment: MTS cell viability assay; format: cell-based; settings: 1.0 mM H2O2, 2 hours, 1 mM compound
Method: The SRA-1 human lens epithelium cell line (Ibaraki et al. (1998) Exp. Eye Res., 67:577-85) was used to evaluate the antioxidant activity of JHX-1-8. […] The cells were passaged when 80-90% confluent by treatment with trypsin-EDTA. The cells were plated at a density of 1×10^4 cells onto 96-well plates or 1×10^6 cells onto 100-mm dishes. ROS levels/effects in cells treated with JHX-1-8 were compared to similar cells treated with the water soluble Vitamin E derivative, Trolox (antioxidant control) or no drug (control). […] Cells were cultured in 96-well plates and exposed for 2 hours to media containing 1.0 mM H2O2 (FIG. 5A) or Fenton reagents (1.0 mM H2O2 and 1.0 mM Fe^2+, FIG. 5B) with/without 1 mM JHX-1-8 or Trolox. Viability was measured as the absorbance of MTS stain at 490 nm 1 hour after the addition of 20 μL of […] AQueous One Solution Cell Proliferation Assay to each well. The results were normalized to blank control (100%) since absorbance is directly proportional to the living cell population.

| SMILES | % Parent Peak Remaining at 10:1 Solution of Metal:Compound [1] | ROS staining, ROS generated by Fenton reaction [2] | ROS staining, ROS initiated by homocysteine [2] | protection against H2O2 induced loss of cell viability [3] |
| --- | --- | --- | --- | --- |
| CN(C)S(=O)(=O)N1C(=O)CN(c2ncc(O)cn2)CC1=O [JHX-4, 1-N,N′-dimethylsulfamoyl-4-(5-hydroxy-2-pyrimidyl)piperazine-2,6-dione] | 6.9% | protected against ROS | reduced ROS staining similar to that with Trolox | protecting against H2O2 induced loss of cell viability |
| COc1nc(N2CC(=O)N(S(=O)(=O)N(C)C)C(=O)C2)nc(OC)c1O [JHX-8, 1-N,N′-dimethylsulfamoyl-4-(4,6-dimethoxy-5-hydroxy-2-pyrimidyl)piperazine-2,6-dione] | 7.5% | protected against ROS | reduced ROS staining similar to that with Trolox | protecting against H2O2 induced loss of cell viability |
